Experimental data published in publication PMC9159852, “Synthesis, Structure, and Biologic Activity of Some Copper, Nickel, Cobalt, and Zinc Complexes with 2-Formylpyridine N^4-Allylthiosemicarbazone” (Bioinorganic Chemistry and Applications, 2022).
Like-named read-outs stand apart in the source and are kept apart here.

Columns and labels:
[1] = system: human epithelial pancreatic adenocarcinoma (BxPC-3) cell line; test: Antiproliferative activity (MTS and Resazurin assays), BxPC-3; type: cell-based; settings: for SI (selectivity index): IC50(MDCK)/IC50(BxPC-3)
Method: (§1) The antiproliferative activity of the studied substances was determined toward a series of cancer cell lines (HL-60 (ATCC CCL-240), BxPC-3 (ATCC CRL-1687), HeLa (ATCC CCL-2), RD (ATCC CCL-136)), and a normal cell line (MDCK (ATCC CCL-34)). These cell lines were cultured in accordance with the previously described method. Determination of the number of viable cells after cultivation in the presence of various concentrations of the studied substances was carried out by the MTS and Resazurin assays according to the previously described method. The 10-mM stock solutions of the studied compounds as well as the reference compound (doxorubicin) were prepared by dissolving 10 μmol of the corresponding compound in 1 mL of DMSO. The 0.1, 1, 10, and 100 μM solutions were prepared by dilution of the stock solutions with the corresponding medium and used for the study of antiproliferative activity.

[2] = Acute toxicity assay against Daphnia magna; settings: Daphnia magna, in vivo, pH 7.5
Method: (§2) The general toxicity of the tested compounds was evaluated using Daphnia magna (Straus, 1820). Daphnia magna was originated from a culture maintained parthenogenetically at the Institute of Zoology (Laboratory of Systematics and Molecular Phylogeny).
(§3) The test design was based on ISO 6341 : 2012. The test-organisms Daphnia magna Straus were fed with Chlorella vulgaris. These unicellular algae were grown using aseptic technology to exclude contamination of the culture by bacteria, algae or protozoa. Chlorella vulgaris were cultivated in Prat's growth medium containing KNO3 (1 μM), MgSO4·7H2O (40 μM), K2HPO4·3H2O (400 μM), FeCl3·6H2O (3.6 μM) in H2O distilled (adjusted the pH to 7.0, autoclaved and stored at 5°C).
(§4) D. magna was maintained in aerated aqueous straw infusion growth media supplemented with CaCl2 ([…]), NaHCO3 (2.59 g/L), KCl (0.23 g/L), and MgSO4, 7H2O (4.93 g/L). (pH∼7.5 ± 0.2; O2 ≥ 6.0 mg/L).
(§5) Juveniles were selected according to their size and kept in fresh medium for 24 h. D. magna was cultured in Costar® 24-well culture clear sterile multiple well plates covered by a lid to prevent the possibility of contamination and evaporation but at the same time to allow gaseous exchange between air and culture medium. Each well contained 10 daphnids in 1000 μL final volume of each dilution of the tested compounds.
(§6) The bioassay was then repeated at the concentrations ranging from 0.1 to 100 μM (0.1, 1, 10, and 100 μM) in order to determine LC50 for each compound, including doxorubicin (the positive control). Aqueous straw infusion growth media was used to dilute the stock solutions to the required concentrations. […] A 0.1% solution of DMSO in aerated medium (pH∼7.5 ± 0.2; O2 ≥ 6.0 mg/L) was used as a negative control. Throughout the experiment, the juvenile daphnids were incubated at 22 ± 2 °C, using a 16 h/8 h light/dark cycle (500–1000 lx). The mobility (viability) of the test organisms was observed after the 24-h exposure. The experiment was performed in triplicate.
(§7) The percentage of viability (V (%)) of Daphnia magna was calculated according to the formula:(1) V%=Nsample/Ncontrol×100.
(§8) N - Number of viability of Daphnia magna.
(§9) The compounds median lethal concentration that kills 50% of the juvenile daphnids (LC50) values were calculated from the dose-response equation determined by the least squares fit method.

[3] = system: human muscle rhabdomyosarcoma (RD) cell line; test: Antiproliferative activity (MTS and Resazurin assays), RD; type: cell-based; settings: for IC50: RD; for SI (selectivity index): IC50(MDCK)/IC50(RD)
Method: as §1

[4] = system: human cervical epithelial (HeLa) cell line; test: Antiproliferative activity (MTS and Resazurin assays), HeLa; type: cell-based; settings: for IC50: HeLa; for SI (selectivity index): IC50(MDCK)/IC50(HeLa)
Method: as §1

[5] = system: human leukemia HL-60 cell line; test: Antiproliferative activity (MTS and Resazurin assays), HL-60; type: cell-based; settings: for inhibition at 0.1 µM / inhibition at 1 µM / inhibition at 10 µM: read-out: Inhibition of cell proliferation, (%); for IC50: HL-60, Table 3; for SI (selectivity index): IC50(MDCK)/IC50(HL-60)
Method: as §1

[6] = system: normal kidney epithelial (MDCK) cell line; test: Antiproliferative activity (MTS and Resazurin assays), MDCK normal cell line; type: cell-based
Method: as §1

[7] = system: Candida albicans (ATCC 10231); test: Antifungal activity, serial dilutions in liquid broth, C. albicans; type: cell-based
Method: (§10) Antibacterial and antifungal properties of the studied substances were determined on a series of standard strains of Gram-positive microorganisms (Staphylococcus aureus (ATCC 25923)), Gram-negative microorganisms (Escherichia coli (ATCC 25922)), and fungi (Candida albicans (ATCC 10231)) using the method of serial dilutions in liquid broth. Stock solutions of the studied compounds as well as the reference compounds (furacillinum and nystatin) were prepared by dissolving 10 mg of the corresponding compound in 1 mL of DMSO. After that, the starting solutions (1 mg/mL) were prepared by tenfold dilution of the stock solution with nutrition medium (2% of peptonate bullion). The next dilutions were prepared by serial double dilution with the nutrition medium.

[8] = Antiradical activity, ABTS•+ method; settings: read-out: IC50 toward ABTS•+ radical cation
Method: The ABTS^•+ method was applied for the determination of antiradical activity of the studied substances. Standard solutions of ABTS^•+ radical cations and tested substances as well as the conditions of spectrophotometric measurements and calculations of inhibition were made as described. The 10-mM stock solutions of the studied compounds as well as the reference compound (trolox) were prepared by dissolving 10 μmol of the corresponding compound in 1 mL of DMSO. The 1, 10, 100, and 1000 μM solutions were prepared by the dilution of stock solutions with DMSO. After that, 20 μL of each tested compound solutions was transferred in a 96-well microtiter plate, and 180 μL of ABTS^•+ working solution was added to receive solutions with final concentrations of tested compounds 0.1, 1, 10, and 100, respectively.

Daphnia magna = test: Acute toxicity assay against Daphnia magna; settings: 24 h exposure; for LC50: Daphnia magna
Method: as §2, §3, §4, §5, §6, §7, §8, §9

[9] = system: Escherichia coli (ATCC 25922); test: Antibacterial activity, serial dilutions in liquid broth, E. coli; type: cell-based; settings: E. coli (G-)
Method: as §10

[10] = system: Staphylococcus aureus (ATCC 25923); test: Antibacterial activity, serial dilutions in liquid broth, S. aureus; type: cell-based; settings: S. aureus (G+)
Method: as §10

[11] = other: exposure in the test medium (immersion)

| SMILES | SI (selectivity index) [1] | SI (selectivity index) [3] | SI (selectivity index) [4] | SI (selectivity index) [5] | IC50 ([1]; BxPC-3) [nM] | MIC [7] [µg/mL] | IC50 [8] [µM] | V, (%) percentage of viability of Daphnia magna (Daphnia magna; 0.1 μM) [%] | V, (%) percentage of viability of Daphnia magna (Daphnia magna; 1 μM) [%] | V, (%) percentage of viability of Daphnia magna (Daphnia magna; 10 μM) [%] | V, (%) percentage of viability of Daphnia magna (Daphnia magna; 100 μM) [%] | LC50 (Daphnia magna) [µM] | IC50 [3] [nM] | MIC [9] [µg/mL] | IC50 [4] [nM] | MBC [10] [µg/mL] | MIC [10] [µg/mL] | Inhibition of cell proliferation, (%) ([5]; HL-60, 0.1 μM) | Inhibition of cell proliferation, (%) ([5]; HL-60, 1 μM) | Inhibition of cell proliferation, (%) ([5]; HL-60, 10 μM) | other results |
| --- | --- | --- | --- | --- | --- | --- | --- | --- | --- | --- | --- | --- | --- | --- | --- | --- | --- | --- | --- | --- | --- |
| COc1cccc2c1C(=O)c1c(O)c3c(c(O)c1C2=O)C[C@@](O)(C(=O)CO)C[C@@H]3O[C@H]1C[C@H](N)[C@H](O)[C@H](C)O1 [Doxorubicin, doxorubicin, reference compound] | 1.9 | 0.44 | 0.71 | 35.5 | – | – | – | – | – | – | – | – | – | – | – | – | – | – | – | – | IC50 ([1]; Homo sapiens, BXPC-3): 3700 ± 300 nM; viability at 24 h, 0.1 µM [2, 11]: 87.2 ± 7.3%; viability at 24 h, 1 µM [2, 11]: 76.9 ± 7.3%; viability at 24 h, 10 µM [2, 11]: 25.6 ± 7.3%; viability at 24 h, 100 µM [2, 11]: 0%; LC50 at 24 h [2]: 3.3 ± 1.1 µM; IC50 ([3]; Homo sapiens): 16200 ± 600 nM; IC50 ([4]; Homo sapiens): 10000 ± 400 nM; inhibition at 0.1 µM ([5]; Homo sapiens, HL-60, 0.1 μM): 16.5 ± 1.8%; inhibition at 1 µM ([5]; Homo sapiens, HL-60, 1 μM): 92.9 ± 0.7%; inhibition at 10 µM ([5]; Homo sapiens, HL-60, 10 μM): 95 ± 0.6%; IC50 ([5]; Homo sapiens): 200 ± 100 nM; IC50 ([6]; Canis lupus familiaris): 7.1 ± 0.3 µM |
| C=CCNC(=S)N/N=C/c1cccnc1 [HL^a] | – | – | – | – | – | – | – | – | – | – | – | – | – | – | – | – | – | – | – | – | inhibition at 0.1 µM ([5]; Homo sapiens, HL-60, 0.1 μM): 0.9 ± 0.2%; inhibition at 1 µM ([5]; Homo sapiens, HL-60, 1 μM): 1.5 ± 0.5%; inhibition at 10 µM ([5]; Homo sapiens, HL-60, 10 μM): 6.1 ± 0.3% |
| C=CCNC(=NN=Cc1ccccn1)[S][Cu][Cl] [compound 2, [Cu(L)Cl]] | 60 | 23 | 7.5 | 30 | 50 ± 20 | 15.6 | > 100 | 102.6 ± 0.0 | 97.4 ± 7.3 | 0.0 | 0.0 | 3.5 ± 2.8 | 130 ± 20 | 3.91 | 400 ± 30 | 0.244 | 0.122 | 40.2 ± 2.8 | 99.2 ± 0.2 | 99.4 ± 0.6 | MFC [7]: 31.3 µg/mL; MBC [9]: 7.81 µg/mL; IC50 [5]: 100 ± 60 nM; IC50 [6]: 3 ± 0.4 µM |
| C=CCNC(=NN=Cc1ccccn1)[S][Cu][Br] [compound 3, [Cu(L)Br]] | 103 | 31 | 21 | 62 | 60 ± 10 | 7.81 | 43 ± 2.1 | 102.6 ± 0.0 | 97.4 ± 7.3 | 0.0 | 0.0 | 3.5 ± 2.8 | 200 ± 100 | 7.81 | 300 ± 30 | 0.488 | 0.244 | 24.5 ± 1.9 | 100.0 ± 0.3 | 100.0 ± 0.1 | MFC [7]: 15.6 µg/mL; MBC [9]: 15.6 µg/mL; IC50 [5]: 100 ± 40 nM; IC50 [6]: 6.2 ± 1.4 µM |
| C=CCNC(=NN=Cc1ccccn1)[S][Cu][O]C(C)=O.C=CCNC(=NN=Cc1ccccn1)[S][Cu][O]C(C)=O.O.O.O.O [compound 4, [Cu2(L)2(CH3COO)2]·4H2O] | 100 | 40 | 10 | 20 | 20 ± 10 | 31.3 | 40.3 ± 1.8 | 76.9 ± 7.3 | 66.7 ± 7.3 | 0.0 | 0.0 | 1.3 ± 0.5 | 50 ± 10 | 1.95 | 200 ± 20 | 0.488 | 0.244 | 32.0 ± 2.3 | 99.8 ± 0.2 | 100.0 ± 0.2 | MFC [7]: 62.5 µg/mL; MBC [9]: 3.91 µg/mL; IC50 [5]: 100 ± 20 nM; IC50 [6]: 2 ± 0.2 µM |
| C=CCNC(=S)NN=Cc1ccccn1.C=CCNC(=S)NN=Cc1ccccn1.O.[Cl-].[Cl-].[Ni+2] [compound 5, [Ni(HL)2]Cl2·H2O] | >27 | >34 | – | >1000 | 3600 ± 900 | 500 | 8.6 ± 0.1 | 102.6 ± 0.0 | 102.6 ± 0.0 | 97.4 ± 7.3 | 87.2 ± 7.3 | > 100 | 2900 ± 400 | 1000 | > 100000 | 31.3 | 15.6 | 54.5 ± 1.1 | 94.9 ± 0.7 | 108.5 ± 0.5 | IC50 [5]: 90 ± 10 nM; Effect on growth and proliferation of normal MDCK cell line (in words) [6]: practically do not affect the growth and proliferation; IC50 [6]: > 100 µM |
| C=CCNC([S-])=NN=Cc1ccccn1.C=CCNC([S-])=NN=Cc1ccccn1.[Cl-].[Co+3] [compound 6, [Co(L)2]Cl] | >24 | – | >40 | – | 4100 ± 500 | 62.5 | > 100 | 97.4 ± 7.3 | 97.4 ± 7.3 | 92.3 ± 0.0 | 35.9 ± 7.3 | 65.4 ± 11.8 | > 100000 | 250 | 2500 ± 500 | 125 | 62.5 | 4.1 ± 0.3 | 6.9 ± 1.7 | 24.1 ± 0.6 | MFC [7]: 250 µg/mL; MBC [9]: 500 µg/mL; IC50 [5]: > 10000 nM; Effect on growth and proliferation of normal MDCK cell line (in words) [6]: practically do not affect the growth and proliferation; IC50 [6]: > 100 µM |
